Among the data in PubChem BioAssay (NCI) are TGI values, retold here.

Among the test systems are BT-549 breast; COLO 205 colon; HCT-116 colon; LOX IMVI melanoma; MOLT-4 leukemia; NCI-H226 lung; NCI-H23 lung; NCI-H460 lung; NCI-H522 lung; OVCAR-5 ovarian; RXF 393 renal; SK-MEL-28 melanoma; SN12C renal; SNB-19 CNS; T-47D breast.
Common to all, as to assay: inhibition of tumour cell growth, NCI panel, 48 h

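Method: 48-hour compound exposure of cells in 96-well plates, five concentrations, linear interpolation of endpoints. TGI: concentration producing complete growth inhibition.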

In the case of `COC(=O)C1=C(C(=O)OC)N(c2ccncc2)C(c2ccco2)=CC1c1ccccc1[N+](=O)[O-]` (stereo unspecified), the TGI turned out to be 25.4 µM in the experiment on BT-549 breast; 10.2 µM in the experiment with COLO 205 colon; 2.7 µM with HCT-116 colon; 3.35 µM with LOX IMVI melanoma; 6.17 µM in the experiment with MOLT-4 leukemia; 30.3 µM in the experiment with NCI-H226 lung. For the same compound, the TGI turned out to be 29.8 µM in the experiment with NCI-H23 lung; 14.7 µM in the experiment on NCI-H460 lung; 5.06 µM in the experiment on NCI-H522 lung; 30.6 µM with OVCAR-5 ovarian; 10.6 µM in the experiment on RXF 393 renal; 27.2 µM in the experiment with SK-MEL-28 melanoma. For the same compound, the TGI in the experiment with SN12C renal was found to be 9.72 µM; in the experiment with SNB-19 CNS it was 41 µM; in the experiment on T-47D breast, 12.9 µM.
As for `CC(=S)NC=C(C(N)=O)C(N)=O`, the TGI in the experiment with BT-549 breast, in the experiment on COLO 205 colon, in the experiment with HCT-116 colon, with LOX IMVI melanoma, with MOLT-4 leukemia and in the experiment on NCI-H226 lung was > 100 µM throughout. For the same compound, the TGI in the experiment on NCI-H23 lung, in the experiment on NCI-H522 lung, in the experiment with OVCAR-5 ovarian, with RXF 393 renal, in the experiment with SK-MEL-28 melanoma and in the experiment on SN12C renal was > 100 µM in each case. Besides, in the experiment on T-47D breast, the TGI is > 100 µM.
As to `O=C(/C=C/c1ccc(O)c(O)c1)O[C@H]1CCCC[C@@H]1OC(=O)/C=C/c1ccc(O)c(O)c1`, the TGI was 63.6 µM in the experiment with BT-549 breast; 56.2 µM with COLO 205 colon; 19 µM with HCT-116 colon; 17 µM in the experiment with LOX IMVI melanoma; > 100 µM in the experiment with MOLT-4 leukemia; 33.7 µM with NCI-H23 lung. In addition, the TGI with NCI-H460 lung is > 100 µM; in the experiment on NCI-H522 lung, 20.8 µM; in the experiment with OVCAR-5 ovarian, 33.9 µM; with RXF 393 renal, 27.6 µM; with SK-MEL-28 melanoma, 44.1 µM; with SN12C renal, 50.1 µM. Moreover, the TGI is 73.8 µM in the experiment on SNB-19 CNS and 98.8 µM in the experiment on T-47D breast.
Consider `O=C(O)c1ccc(C2=Nc3cccc4cccc(c34)N2)cc1`, for which the TGI with BT-549 breast, in the experiment with COLO 205 colon, in the experiment with HCT-116 colon, in the experiment on LOX IMVI melanoma, with MOLT-4 leukemia and in the experiment with NCI-H226 lung was > 100 µM in each case. The TGI with NCI-H23 lung, in the experiment with NCI-H460 lung, with NCI-H522 lung, in the experiment with RXF 393 renal, in the experiment on SK-MEL-28 melanoma and in the experiment with SN12C renal was > 100 µM each time. The TGI in the experiment with SNB-19 CNS and in the experiment with T-47D breast was > 100 µM throughout.
Regarding `N#CC(C#N)[C@@H]1CCC=C(Sc2ccccc2)[C@H]1Sc1ccccc1`, the TGI in the experiment on BT-549 breast is 11.9 µM; in the experiment with COLO 205 colon it was 4.86 µM; with HCT-116 colon, 8.4 µM; in the experiment with MOLT-4 leukemia, > 23.7 µM; in the experiment with NCI-H226 lung it was 4.01 µM; in the experiment on NCI-H23 lung, 20.9 µM. Moreover, the TGI in the experiment on NCI-H460 lung is 13.6 µM; with NCI-H522 lung it was 6.01 µM; in the experiment on OVCAR-5 ovarian it was 20.3 µM; in the experiment with RXF 393 renal it was 4.84 µM; with SK-MEL-28 melanoma it was 7.57 µM; in the experiment on SN12C renal, 12.5 µM. In addition, the values for the TGI in the experiment on SNB-19 CNS and in the experiment with T-47D breast were 29 µM and 7.71 µM, respectively.
For the compound `O=C(c1ccccc1)N1CCC(Nc2cccnc2)O1` (stereo unspecified), the TGI with BT-549 breast, in the experiment with HCT-116 colon, with MOLT-4 leukemia, with NCI-H226 lung, in the experiment on NCI-H23 lung and in the experiment on NCI-H460 lung was > 100 µM in each case. Moreover, the TGI in the experiment on OVCAR-5 ovarian, in the experiment on RXF 393 renal, in the experiment with SK-MEL-28 melanoma, in the experiment with SN12C renal, with SNB-19 CNS and in the experiment with T-47D breast was > 100 µM each time.
On to `COC(=O)C(Cc1ccccc1)NP(=O)(O)OCC1OC(n2ccc(N)nc2=O)C(O)C1O` (stereo unspecified), for which the TGI with BT-549 breast, with COLO 205 colon, in the experiment on HCT-116 colon, in the experiment on LOX IMVI melanoma, in the experiment with MOLT-4 leukemia and with NCI-H226 lung was > 100 µM throughout. The TGI in the experiment with NCI-H23 lung, with NCI-H460 lung, in the experiment with NCI-H522 lung, with OVCAR-5 ovarian, in the experiment with SK-MEL-28 melanoma and in the experiment with SN12C renal was > 100 µM in each case. The TGI in the experiment with SNB-19 CNS and in the experiment on T-47D breast was > 100 µM each time.
As to `CNc1cc(Cl)ccc1C(=O)N1CCC[C@H]1CO`, the TGI in the experiment on BT-549 breast, in the experiment on COLO 205 colon, with HCT-116 colon, in the experiment with LOX IMVI melanoma, in the experiment on MOLT-4 leukemia and in the experiment on NCI-H226 lung was > 100 µM in each case. Also, the TGI with NCI-H23 lung, in the experiment on NCI-H522 lung, in the experiment with OVCAR-5 ovarian, in the experiment on RXF 393 renal, with SK-MEL-28 melanoma and in the experiment on SN12C renal was > 100 µM in each case. The TGI with SNB-19 CNS and in the experiment on T-47D breast was > 100 µM each time.
As for `O=C1c2ccccc2C(=O)c2c1sc1nc3ccccc3n21`, the TGI with BT-549 breast worked out at 3.45 µM; in the experiment with COLO 205 colon it was 3.61 µM; in the experiment with HCT-116 colon, 3.25 µM; in the experiment with MOLT-4 leukemia, 4.89 µM; in the experiment on NCI-H226 lung, 21.2 µM; in the experiment on NCI-H23 lung, 3.74 µM. Also, the TGI in the experiment on NCI-H460 lung worked out at 3.66 µM; with OVCAR-5 ovarian, 4.28 µM; in the experiment with RXF 393 renal it was 3.31 µM; with SN12C renal it was 2.85 µM; with SNB-19 CNS it was 4.42 µM; in the experiment on T-47D breast, 9.02 µM.
For the compound `O=C1C2CCCCC2C(=O)N1n1c(Cc2ccccc2)n[nH]c1=O` (stereo unspecified), the TGI in the experiment with BT-549 breast, with COLO 205 colon, with HCT-116 colon, with LOX IMVI melanoma, in the experiment on MOLT-4 leukemia and with NCI-H226 lung was > 100 µM in each case. Further, the TGI in the experiment with NCI-H23 lung, in the experiment with NCI-H460 lung, with NCI-H522 lung, in the experiment on OVCAR-5 ovarian, in the experiment with RXF 393 renal and in the experiment with SN12C renal was > 100 µM throughout. The TGI in the experiment with SNB-19 CNS and in the experiment on T-47D breast was > 100 µM throughout.
